Measurements reported in US7064120B2, “Tricyclic pyridyl carboxamides and derivatives thereof tocolytic oxytocin receptor antagonists” (Wyeth, priority 2001, dated 2006).

Target: T1, human oxytocin receptor (Homo sapiens, UniProt P30559)
T1 construct: host or cells: CHO cells, stably transfected (pcDNA3.1 vector)
T1 sequence (P30559 1-389): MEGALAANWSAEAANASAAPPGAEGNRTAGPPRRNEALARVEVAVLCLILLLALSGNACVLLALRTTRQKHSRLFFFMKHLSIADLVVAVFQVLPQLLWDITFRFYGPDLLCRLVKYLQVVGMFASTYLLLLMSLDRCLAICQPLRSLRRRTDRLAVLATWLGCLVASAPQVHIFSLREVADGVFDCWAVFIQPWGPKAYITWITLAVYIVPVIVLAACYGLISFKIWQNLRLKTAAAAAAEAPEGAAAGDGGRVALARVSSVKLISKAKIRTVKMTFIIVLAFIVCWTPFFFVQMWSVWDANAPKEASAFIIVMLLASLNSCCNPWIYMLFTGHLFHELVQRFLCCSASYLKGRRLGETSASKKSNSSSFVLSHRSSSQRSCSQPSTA
Assay: Oxytocin binding in CHO cell membranes expressing human oxytocin receptors ([3H]oxytocin radioligand binding)
Details: for IC50: value in parentheses, read-out: OT (IC50); for inhibition at 0.1 µM: 100 nM, read-out: OT % inhibition @ 100 nM
Summary of the method: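 CHO membranes expressing human oxytocin receptor (25–50 μg protein/well) incubated 60 min at room temperature with [3H]oxytocin in Tris-HCl pH 7.4 buffer with MgCl2, BSA and protease inhibitors. Filtration and scintillation counting; reported as % inhibition at a stated concentration or nM IC50.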

Row | Structure (SMILES) | IC50 [nM] | inhibition at 0.1 µM [%]
1 | Cc1ccccc1-c1ccc(C(=O)N2Cc3ccc(C(=O)N4CCN(c5ccccn5)CC4)n3Cc3ccccc32)cc1C [Example 76, {10-[(2,2′-Dimethyl-[1,1′-biphenyl]-4-yl)carbonyl]-10,11-dihydro-5H-pyrrolo[2,1-c][1,4]benzodiazepin-3-yl}[4-(2-pyridinyl)-1-piperazinyl]methanone] |  | 62
2 | COc1cc(C(=O)N2Cc3ccc(C(=O)NCc4ccncc4)n3Cc3ccccc32)ccc1-c1cccc2ccccc12 [Example 96, 10-[3-Methoxy-4-(naphthalen-1-yl)benzoyl]-N-(4-pyridinylmethyl)-10,11-dihydro-5H-pyrrolo[2,1-c][1,4]benzodiazepine-3-carboxamide] |  | 28
3 | COc1cc(-c2ccccc2Cl)c(Cl)cc1C(=O)N1Cc2ccc(C(=O)N(C)Cc3cccnc3)n2Cc2ccccc21 [Example 6, 10-[(2′,6-Dichloro-3-methoxy-[1,1′-biphenyl]-4-yl)carbonyl]-N-methyl-N-(pyridin-3-ylmethyl)-10,11-dihydro-5H-pyrrolo[2,1-c][1,4]benzodiazepine-3-carboxamide] | 7.51 | 
4 | COc1ccccc1-c1ccc(C(=O)N2Cc3ccc(C(=O)N4CCN(c5ccccn5)CC4)n3Cc3ccccc32)cc1C [Example 75, {10-[(2′-Methoxy-2-methyl-[1,1′-biphenyl]-4-yl)carbonyl]-10,11-dihydro-5H-pyrrolo[2,1-c][1,4]benzodiazepin-3-yl}[4-(2-pyridinyl)-1-piperazinyl]methanone] |  | 62
5 | Cc1ccccc1-c1ccc(C(=O)N2Cc3ccc(C(=O)NCc4ccncc4)n3Cc3ccccc32)cc1 [Example 92, 10-[(2′-Methyl-[1,1′-biphenyl]-4-yl)carbonyl]-N-(4-pyridinylmethyl)-10,11-dihydro-5H-pyrrolo[2,1-c][1,4]benzodiazepine-3-carboxamide] |  | 30
6 | COc1cccc(-c2ccc(C(=O)N3Cc4ccc(C(=O)N(C)Cc5cccnc5)n4Cc4ccccc43)cc2C)c1 [Example 102, 10-[(3′-Methoxy-2-methyl-[1,1′-biphenyl]4-yl)carbonyl]-N-methyl-N-(3-pyridinyImethyl)-10,11-dihydro-5H-pyrrolo[2,1-c][1,4]benzodiazepine-3-carboxamide] | 4.14 | 
7 | COc1ccccc1-c1ccc(C(=O)N2Cc3ccc(C(=O)NCc4ccncc4)n3Cc3ccccc32)cc1 [Example 91, 10-[(2′-Methoxy-[1,1′-biphenyl]-4-yl)carbonyl]-N-(4-pyridinylmethyl)-10,11-dihydro-5H-pyrrolo[2,1-c][1,4]benzodiazepine-3-carboxamide] |  | 44
8 | O=C(NCc1ccncc1)c1ccc2n1Cc1ccccc1N(C(=O)c1ccc(-c3cccc4ccccc34)cc1Cl)C2 [Example 99, 10-[2-Chloro-4-(naphthalen-1-yl)benzoyl]-N-(4-pyridinylmethyl)-10,11-dihydro-5H-pyrrolo[2,1-c][1,4]benzodiazepine-3-carboxamide] |  | 13
9 | COc1cccc(-c2ccc(C(=O)N3Cc4ccc(C(=O)NCc5ccncc5)n4Cc4ccccc43)cc2C)c1 [Example 90, 10-[(3′-Methoxy-2-methyl-[1,1′-biphenyl]-4-yl)carbonyl]-N-(4-pyridinylmethyl)-10,11-dihydro-5H-pyrrolo[2,1-c][1,4]benzodiazepine-3-carboxamide] |  | 44
10 | COc1ccccc1-c1ccc(C(=O)N2Cc3ccc(C(=O)N4CCN(c5ccncc5)CC4)n3Cc3ccccc32)cc1C [Example 113, {10-[(2′-Methoxy-2-methyl-[1,1′-biphenyl]-4-yl)carbonyl]-10,11-dihydro-5H-pyrrolo[2,1-c][1,4]benzodiazepin-3-yl}[4-(4-pyridinyl)-1-piperazinyl]methanone] | 10.8 | 
11 | COc1cccc(-c2cc(OC)c(C(=O)N3Cc4ccc(C(=O)NCc5ccncc5)n4Cc4ccccc43)cc2Cl)c1 [Example 95, 10-[(6-Chloro-3,3′-dimethoxy-[1,1′-biphenyl]-4-yl)carbonyl]-N-(4-pyridinylmethyl)-10,11-dihydro-5H-pyrrolo[2,1-c][1,4]benzodiazepine-3-carboxamide] |  | 7

Next, values leading:

Row | IC50 [nM] | inhibition at 0.1 µM [%] | Structure (SMILES)
12 | 4.65 |  | COc1cc(C(=O)N2Cc3ccc(C(=O)N(C)Cc4ccc[n+]([O-])c4)n3Cc3ccccc32)ccc1-c1ccccc1C(F)(F)F [Example 8, 10-{[2-Methoxy-2′-trifluoromethyl-[1,1′-biphenyl]-4-yl]carbonyl}-N-methyl-N-(1-oxo-pyridin-3-ylmethyl)-10,11-dihydro-5H-pyrrolo[2,1-c][1,4]benzodiazepine-3-carboxamide]
13 |  | 24 | Cc1cc(C(=O)N2Cc3ccc(C(=O)NCc4ccncc4)n3Cc3ccccc32)ccc1-c1ccccc1C(F)(F)F [Example 100, 10-{[2-Methyl-2′-trifluoromethyl-[1,1′-biphenyl]-4-yl]carbonyl}-N-(4-pyridinylmethyl)-10,11-dihydro-5H-pyrrolo[2,1-c][1,4]benzodiazepine-3-carboxamide]
14 | 45 |  | Cc1cc(C(=O)N2Cc3ccc(C(=O)N4CCN(Cc5ccc[n+]([O-])c5C)CC4)n3Cc3ccccc32)ccc1-c1ccccc1C(F)(F)F [Example 3, 3-({4-[(2-Methyl-1-oxidopyridin-3-yl)methyl]piperazin-1-yl}carbonyl)-10-{[2-methyl-2′-trifluoromethyl-[1,1′-biphenyl]-4-yl]carbonyl}-10,11-dihydro-5H-pyrrolo[2,1-c][1,4]benzodiazepine]
15 |  | 81 | COc1cc(C(=O)N2Cc3ccc(C(=O)N(C)CCc4ccccn4)n3Cc3ccccc32)ccc1-c1cccc2ccccc12 [Example 71, 10-[3-Methoxy-4-(naphthalen-1-yl)benzoyl]-N-methyl-N-[2-(2-pyridinyl)ethyl]-10,11-dihydro-5H-pyrrolo[2,1-c][1,4]benzodiazepine-3-carboxamide]
16 |  | 50 | COc1cc(C(=O)N2Cc3ccc(C(=O)N4CCN(c5ccccn5)CC4)n3Cc3ccccc32)ccc1-c1ccccc1C [Example 80, {10-[(2-Methoxy-2′-methyl-[1,1′-biphenyl]-4-yl)carbonyl]-10,11-dihydro-5H-pyrrolo[2,1-c][1,4]benzodiazepin-3-yl}[4-(2-pyridinyl)-1-piperazinyl]methanone]
17 |  | 21 | COc1cccc(-c2ccc(C(=O)N3Cc4ccc(C(=O)N5CCN(c6ccccn6)CC5)n4Cc4ccccc43)cc2C)c1 [Example 77, {10-[(3′-Methoxy-2-methyl-[1,1′-biphenyl]-4-yl)carbonyl]-10,11-dihydro-5H-pyrrolo[2,1-c][1,4]benzodiazepin-3-yl}[4-(2-pyridinyl)-1-piperazinyl]methanone]
18 |  | 52 | Cc1cc(C(=O)N2Cc3ccc(C(=O)N4CCN(c5ccccn5)CC4)n3Cc3ccccc32)ccc1-c1ccccc1C(F)(F)F [Example 87, (10-{[2-Methyl-2′-trifluoromethyl-[1,1′-biphenyl]-4-yl]carbonyl}-10,11-dihydro-5H-pyrrolo[2,1-c][1,4]benzodiazepin-3-yl)[4-(2-pyridinyl)-1-piperazinyl]methanone]
19 | 16.8 |  | Cc1cc(C(=O)N2Cc3ccc(C(=O)N4CCN(Cc5ccc[n+]([O-])c5)CC4)n3Cc3ccccc32)ccc1-c1ccccc1C(F)(F)F [Example 2, 10-{[2-Methyl-2′-trifluoromethyl-[1,1′-biphenyl]-4-yl]carbonyl}-3-({4-[(1-oxidopyridin-3-yl)methyl]piperazin-1-yl}carbonyl)-10,11-dihydro-5H-pyrrolo[2,1-c][1,4]benzodiazepine]
20 |  | 69 | COc1cc(C(=O)N2Cc3ccc(C(=O)NCc4ccncc4)n3Cc3ccccc32)ccc1-c1ccccc1C [Example 93, 10-[(2-Methoxy-2′-methyl-[1,1′-biphenyl]-4-yl)carbonyl]-N-(4-pyridinylmethyl)-10,11-dihydro-5H-pyrrolo[2,1-c][1,4]benzodiazepine-3-carboxamide]
21 | 2.44 |  | Cc1cc(C(=O)N2Cc3ccc(C(=O)N(C)Cc4ccc[n+]([O-])c4)n3Cc3ccccc32)ccc1-c1ccccc1C(F)(F)F [Example 4, N-Methyl-10-{[2-methyl-2′-trifluoromethyl-[1,1′-biphenyl]-4-yl]carbonyl}-N-[(1-oxidopyridin-3-yl)methyl]-10,11-dihydro-5H-pyrrolo[2,1-c][1,4]benzodiazepine-3-carboxamide]
22 |  | 91 | Cc1cc(C(=O)N2Cc3ccc(C(=O)N(C)CCc4ccccn4)n3Cc3ccccc32)ccc1-c1ccccc1C(F)(F)F [Example 74, N-Methyl-10-{[2-methyl-2′-trifluoromethyl-[1,1′-biphenyl]-4-yl]carbonyl}-N-[2-(2-pyridinyl)ethyl]-10,11-dihydro-5H-pyrrolo[2,1-c][1,4]benzodiazepine-3-carboxamide]
23 |  | 21 | O=C(c1ccc2n1Cc1ccccc1N(C(=O)c1ccc(-c3cccc4ccccc34)cc1Cl)C2)N1CCN(c2ccccn2)CC1 [Example 86, {10-[2-Chloro-4-(naphthalen-1-yl)benzoyl]-10,11-dihydro-5H-pyrrolo[2,1-c][1,4]benzodiazepin-3-yl}[4-(2-pyridinyl)-1-piperazinyl]methanone]
24 |  | 95 | COc1ccccc1-c1ccc(C(=O)N2Cc3ccc(C(=O)N(C)CCc4ccccn4)n3Cc3ccccc32)cc1C [Example 65, 10-[(2′-Methoxy-2-methyl-[1,1′-biphenyl]-4-yl)carbonyl]-N-methyl-N-[2-(2-pyridinyl)ethyl]-10,11-dihydro-5H-pyrrolo[2,1-c][1,4]benzodiazepine-3-carboxamide]
